Data as given in US10940210B2, “BSH complex for boron neutron capture therapy” (National University Corporation Okayama University, priority 2016, dated 2021).

What was measured:
[1] = system: glioma cell line U87ΔEGFR; assay: Delivery of complex into a cancer cell, boron concentration in the cell by ICP-AES; assay type: cell-based, human; settings: BSH 2 mM alone or with A6K (hydrochloride salt) 200 μM, 37° C. for 24 hours
Method: Mixing times were 10 minutes, 30 minutes, and 180 minutes. The obtained complex was diluted (pH 7.1 to 7.3) with PBS and added to a glioma cell line U87ΔEGFR in a petri dish. […] Each cell sample obtained by incubating, with the complex, at 37° C. for 3 hours, 12 hours, and 24 hours was subjected to ICP-AES thereby to measure a boron concentration in the cell. […] The incubation time of 12 hours was sufficient. […] The time for mixing with stirring of 10 minutes was sufficient. Increases in the BSH amounts in the cell were detected as an incubation time was extended.
A6R (TFA salt) and BSH were mixed with stirring by the same method as the method described in the above (1) to prepare a complex. The obtained complex was diluted (pH 7.1 to 7.3) with PBS and added to a glioma cell line U87ΔEGFR in a petri dish. Each cell sample obtained by incubating, with the complex, at 37° C. for 6 hours, 12 hours, and 24 hours was subjected to ICP-AES thereby to measure a boron concentration in the cell.
The complex containing A6K (hydrochloride salt) and BSH obtained in the above (1) (a molar ratio of A6K (hydrochloride salt):BSH was 1:10) was added to a glioma cell line U87ΔEGFR in a similar procedure to that described in Example 2 (2). The complex was added in an amount in such a way that final concentrations of A6K (hydrochloride salt) and BSH were as shown in FIG. 11. […]

U87ΔEGFR brain tumor = assay: Tumor-specific introduction of BSH in brain tumor model animal, anti-BSH immunohistostaining; assay type: in vivo, mouse; settings: 200 μL tail vein, BSH 20 mM (with A6K 2 mM in complex); 12 hours after administration
Method: Animals used in the present experiment were bred, housed and used in accordance with the procedure approved (approval code: OKU-2016475) by the Animal Care and Use Committee, Okayama University. Tumor-bearing model mice (BALB/C nu/nu, female, 6 to 8 weeks of age, 25 g, Japan SLC, Inc., Shizuoka) were created by directly injecting 3 μL of a U87ΔEGFR cell suspension (1×10^5 cells/μL) into the brain. Two weeks later, 200 μL of the complex containing A6K and BSH (A6K 2 mM/BSH 20 mM) and 200 μL of BSH 20 mM as control experiments were respectively administered from the tail vein (given that a mouse body weight was 20 g, A6K-HCl was converted to 8 mg/kg and BSH was converted to 33.4 mg/kg.)
The complex used in the experiment (the compound described in Example 4 (1)) was prepared as follows. 70 μL of MQ water was added to 70 μL of A6K 10 mM to adjust to A6K 5 mM. […]
Twelve hours after administration, the mouse brain was embedded using an embedding medium for a frozen tissue section, tissue tek O.C.T compound. […] After washing, the section was immersed for 2 hours at room temperature in a solution of a donkey anti-mouse antibody (Life Technologies) labelled with Alexa-Fluor 488 (green fluorescence) (20 μg/mL) and a solution of a goat anti-rabbit antibody (Life Technologies) labelled with Alexa-Fluor 555 (red fluorescence) (2 μg/mL). […]

Substance: mercaptoundecahydrododecaborate [BSH]
- intracellular boron concentration [1]: 595.2±105.1 ng/10^6 cells
- location of BSH relative to tumor tissue (HLA-A positive) (U87ΔEGFR brain tumor): not different between tumor tissues and normal brain tissues
- presence of BSH in brain tissue (green fluorescence) (U87ΔEGFR brain tumor): weak
